Patent US8575197B2, “Pyrolinone derivative and pharmaceutical composition comprising the same” (Shionogi & Co., Ltd., priority 2008, dated 2013)

These molecules were tested against human P2X3 receptor (Homo sapiens (Human), UniProt P56373) (assay: P2X3 receptor inhibition, ATP-evoked Fluo-3 calcium fluorescence (FDSS 3000)). Details: C6BU-1 cell transfected with human P2X3 receptor gene; ATP-evoked Fluo-3 fluorescence.
Assay type: cell-based
In short: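 C6BU-1 cells stably transfected with human P2X3, loaded with 4 μM Fluo-3-AM for 1 h at 37 °C in HEPES buffer pH 7.5 with probenecid. Compound added 5 min before 40 nM ATP solution; fluorescence followed 3 min. IC50 from ratio of peak post-ATP to baseline fluorescence.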

human P2X3 receptor, sequence (P56373 whole entry): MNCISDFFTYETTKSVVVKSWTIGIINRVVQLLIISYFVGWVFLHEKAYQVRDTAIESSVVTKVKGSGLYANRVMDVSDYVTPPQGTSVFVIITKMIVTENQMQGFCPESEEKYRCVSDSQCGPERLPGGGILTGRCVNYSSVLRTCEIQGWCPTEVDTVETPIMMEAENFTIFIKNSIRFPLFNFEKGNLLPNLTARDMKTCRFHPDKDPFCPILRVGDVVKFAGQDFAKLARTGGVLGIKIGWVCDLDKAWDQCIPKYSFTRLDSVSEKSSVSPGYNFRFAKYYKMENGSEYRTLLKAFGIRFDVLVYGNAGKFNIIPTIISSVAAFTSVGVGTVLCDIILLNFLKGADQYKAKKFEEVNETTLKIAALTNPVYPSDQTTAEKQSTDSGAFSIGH

Row | Structure (SMILES) | IC50 [nM]
1 | COCCOc1ccccc1C1C(C(=O)CC(C)C)=C(O)C(=O)N1c1ccc(-c2noc(C)n2)cc1 (stereo not shown) [Compound I-276] | 117
2 | CC(C)(CO)c1n[nH]c2c1C(c1ccccn1)N(c1ccc(-c3ccsc3)cc1)C2=O (stereo not shown) [II-234] | 130
3 | Cc1nc(-c2ccc(N3C(=O)C(O)=C(C(=O)C4CCCC4)C3c3ccccc3OC(C)C)cc2)no1 (stereo not shown) [Compound I-518] | 87
4 | COc1ccccc1C1C(C(=O)C(C)C)=C(O)C(=O)N1c1ccc(-c2ccoc2)cc1 (stereo not shown) [Compound I-198] | 64
5 | COc1ccccc1C1c2c(C(C)(C)C)n[nH]c2C(=O)N1c1ccc(-c2ccco2)cn1 (stereo not shown) [II-257] | 33
6 | COc1ccccc1C1c2c(C(C)(C)C)n[nH]c2C(=O)N1c1ccc(C)cc1 (stereo not shown) [II-196] | 783
7 | Cc1nc(-c2ccc(N3C(=O)C(O)=C(C(=O)C(C)C)C3c3ccccc3N3CCOCC3)cc2)no1 (stereo not shown) [Compound I-487] | 167
8 | CC(C)(C)c1n[nH]c2c1C(c1ccccc1OCc1nnn[nH]1)N(c1ccc(-c3ccsc3)cc1)C2=O (stereo not shown) [II-174] | 3
9 | CSc1ccc(N2C(=O)c3[nH]nc(C(C)(C)C)c3C2c2ccccc2OCCO)cc1 (stereo not shown) [II-013] | 19
10 | CC(C)(C)c1n[nH]c2c1C(c1ccccc1S(C)(=O)=O)N(c1ccc(-c3ccon3)cc1)C2=O (stereo not shown) [II-112] | 389
11 | Cc1ccc(-c2ccc(N3C(=O)C(O)=C(C(=O)C(C)C)C3c3ccccc3C(=O)N(C)C)cc2)o1 (stereo not shown) [Compound I-397] | 122
12 | CCOC(=O)C1C(C(=O)C(C)C)=C(O)C(=O)N1c1ccc(-c2ccsc2)cc1 (stereo not shown) [Compound I-216] | 679
13 | CC(C)(C)C(=O)C1=C(O)C(=O)N(c2ccc(-c3ccon3)cc2)C1c1cccc2c1OCO2 (stereo not shown) [Compound I-055] | 596
14 | CC(C)(C)C(=O)C1=C(O)C(=O)N(c2ccc(-c3cc[nH]c3)cc2)C1c1ccccc1OCCO (stereo not shown) [Compound I-154] | 192
15 | Cc1ccc(-c2ccc(N3C(=O)C(O)=C(C(=O)C(C)C)C3c3ccccc3N3CCCC3=O)cc2)s1 (stereo not shown) [Compound I-597] | 668
16 | Cc1nc(-c2ccc(N3C(=O)C(O)=C(C(=O)C(C)C)C3c3ccccc3CCC(N)=O)cc2)no1 (stereo not shown) [Compound I-592] | 827
17 | CC(C)c1n[nH]c2c1C(c1ccccc1NS(C)(=O)=O)N(c1ccc(-c3ccsc3)cc1)C2=O (stereo not shown) [II-088] | 4
18 | COCc1ccccc1C1C(C(=O)C(C)C)=C(O)C(=O)N1c1ccc(-c2ccoc2)cc1 (stereo not shown) [Compound I-204] | 43
19 | COc1ccc(C(=O)C2=C(O)C(=O)N(c3nc4ccc(OC)cc4s3)C2C2CCCCC2)cc1 (stereo not shown) [Compound I-009] | 14
20 | CCOC(=O)C(C)(C)C(=O)C1=C(O)C(=O)N(c2ccc(-c3csc(C)c3)cc2)C1c1ccccc1OC (stereo not shown) [Compound I-470] | 972
21 | COc1ccccc1C1c2c(C(C)(C)C)n[nH]c2C(=O)N1c1ccc(OC(F)(F)F)cc1 (stereo not shown) [II-097] | 358
22 | CC(C)C(=O)C1=C(O)C(=O)N(c2ccc(-c3ccsc3)cc2)C1c1ccccc1OCC(=N)NO (stereo not shown) [Compound I-220] | 5
23 | COCCOc1ccccc1C1C(C(=O)C(C)(C)C)=C(O)C(=O)N1c1ccc(-c2ccon2)cc1 (stereo not shown) [Compound I-098] | 370
24 | COCCOc1ccccc1C1C(C(=O)C(C)C)=C(O)C(=O)N1c1ccc(-c2csnn2)cc1 (stereo not shown) [Compound I-532] | 204
25 | CC(C)C(=O)C1=C(O)C(=O)N(c2ccc(-c3ccon3)cc2)C1c1ccccc1OCCO (stereo not shown) [Compound I-191] | 279

Row | Structure (SMILES) | IC50 [nM]
26 | CC(C)(C)C(=O)C1=C(O)C(=O)N(c2ccc(-c3ccon3)cc2)C1c1ccccc1OCC(N)=O (stereo not shown) [Compound I-144] | 365
27 | COc1ccccc1C1c2c(C(C)(C)C)n[nH]c2C(=O)N1c1ccc(Br)cn1 (stereo not shown) [II-246] | 871
28 | CC(C)(C)C(=O)C1=C(O)C(=O)N(c2ccc(-c3ccsc3)cc2)C1c1ccccc1C(=O)O (stereo not shown) [Compound I-184] | 163
29 | CC(C)C(=O)C1=C(O)C(=O)N(c2ccc(-c3ccsc3)cc2)C1c1ccccc1OC(F)(F)F (stereo not shown) [Compound I-302] | 34
30 | COc1ccccc1C1c2c(C(C)C)n[nH]c2C(=O)N1c1ccc(-c2ccsc2)c(F)c1 (stereo not shown) [II-238] | 19
31 | COc1ccc(C(=O)C2=C(O)C(=O)N(c3ccc(-c4nnc(C)o4)cc3)C2c2ccccc2OC)cc1 (stereo not shown) [Compound I-033] | 53
32 | CC(C)OCc1ccccc1C1C(C(=O)C(C)C)=C(O)C(=O)N1c1ccc(-c2ccsc2)cc1 (stereo not shown) [Compound I-541] | 10
33 | Cc1nc(-c2ccc(N3C(=O)C(O)=C(C(=O)C(C)C)C3c3ccccc3OCCCO)cc2)no1 (stereo not shown) [Compound I-444] | 172
34 | Cc1ccc(-c2ccc(N3C(=O)C(O)=C(C(=O)C(C)C)C3c3ccccc3OC(F)F)cc2)o1 (stereo not shown) [Compound I-358] | 25
35 | CSc1ccccc1C1C(C(=O)C(C)C)=C(O)C(=O)N1c1ccc(-c2ccsc2)cc1 (stereo not shown) [Compound I-558] | 8
36 | COCCOc1ccccc1C1c2c(C(C)(C)C)n[nH]c2C(=O)N1c1ccc(SC)cc1 (stereo not shown) [II-026] | 23
37 | COCOc1ccccc1C1C(C(=O)C(C)C)=C(O)C(=O)N1c1ccc(-c2ccsc2)cc1 (stereo not shown) [Compound I-213] | 6
38 | COCCCOc1ncccc1C1C(C(=O)C(C)C)=C(O)C(=O)N1c1ccc(-c2ccoc2)cc1 (stereo not shown) [Compound I-567] | 57
39 | CC(C)C(=O)C1=C(O)C(=O)N(c2ccc(-c3ccsc3)cc2)C1c1ccccc1OCC(N)=O (stereo not shown) [Compound I-189] | 14
40 | CC(C)(C)C(=O)C1=C(O)C(=O)N(c2ccc(-c3nccs3)cc2)C1c1ccccc1OCCO (stereo not shown) [Compound I-082] | 650
41 | COc1ccccc1C1c2c(C(C)=O)n[nH]c2C(=O)N1c1ccc(-c2ccsc2)cc1 (stereo not shown) [II-188] | 156
42 | Cc1ccc(-c2ccc(N3C(=O)C(O)=C(C(=O)C(C)C)C3c3ccccc3OC(F)(F)F)cc2)o1 (stereo not shown) [Compound I-359] | 24
43 | CC(C)CC(=O)C1=C(O)C(=O)N(c2ccc(-c3ccsc3)cc2)C1c1ccccc1OCCO (stereo not shown) [Compound I-250] | 29
44 | COCCOc1ccccc1C1C(C(=O)C(C)(C)C)=C(O)C(=O)N1c1ccc(-c2cc[nH]c2)cc1 (stereo not shown) [Compound I-153] | 216
45 | CSc1ccc(N2C(=O)C(O)=C(C(=O)C(C)C)C2c2ccccc2OCC2CC2)cc1 (stereo not shown) [Compound I-589] | 32
46 | COCc1ccccc1C1C(C(=O)C(C)C)=C(O)C(=O)N1c1ccc(C2=CCCC2)cc1 (stereo not shown) [Compound I-527] | 39
47 | COc1ncccc1C1C(C(=O)CC(C)C)=C(O)C(=O)N1c1ccc(-c2ccc(C)s2)cc1 (stereo not shown) [Compound I-336] | 351
48 | COCc1ccccc1C1C(C(=O)C(C)C)=C(O)C(=O)N1c1ccc(-c2ccsc2)cc1 (stereo not shown) [Compound I-186] | 13
49 | CC(C)C(=O)C1=C(O)C(=O)N(c2ccc(-c3ccon3)cc2)C1c1ccccc1OCC1CCOCC1 (stereo not shown) [Compound I-590] | 28
50 | CC(C)CC(=O)C1=C(O)C(=O)N(c2ccc(-c3ccsc3)cc2)C1c1ccccc1OCC(CO)CO (stereo not shown) [Compound I-498] | 8

Row | Structure (SMILES) | IC50 [nM]
51 | CC(C)c1n[nH]c2c1C(c1cccnc1OCCO)N(c1ccc(-c3ccsc3)cc1)C2=O (stereo not shown) [II-045] | 16
52 | COc1ncccc1C1C(C(=O)C(C)(C)C)=C(O)C(=O)N1c1ccc(SC)cc1 (stereo not shown) [Compound I-066] | 434
53 | COCCOc1ncccc1C1C(C(=O)CC(C)C)=C(O)C(=O)N1c1ccc(-c2ccc(C)o2)cc1 (stereo not shown) [Compound I-360] | 21
54 | COc1cccc(OC)c1C1c2c(C(C)(C)C)n[nH]c2C(=O)N1c1ccc(-c2ccon2)cc1 (stereo not shown) [II-060] | 538
55 | COc1ccccc1C1c2c(C(C)(C)CO)n[nH]c2C(=O)N1c1ccc(-c2nccs2)cc1 (stereo not shown) [II-141] | 22
56 | COc1ccccc1C1C(C(=O)C(C)(C)C)=C(O)C(=O)N1c1ccc(-c2ccoc2)nc1 (stereo not shown) [Compound I-093] | 756
57 | C/N=C1/CC(C)(C)C(=O)OC2=C1C(c1ccccc1OC)N(c1ccc(-c3ccsc3)cc1)C2=O (stereo not shown) [Compound I-587] | 374
58 | COCc1ccccc1[C@H]1C(C(=O)C(C)C)=C(O)C(=O)N1c1ccc(-c2ccsc2)cc1 [Compound I-254] | 511
59 | COc1ccccc1C1C(C(=O)c2cccnc2)=C(O)C(=O)N1c1ccc(-c2ccsc2)cc1 (stereo not shown) [Compound I-460] | 103
60 | COc1ccccc1C1C(C(=O)C(C)(C)C)=C(O)C(=O)N1c1ccc(SC(F)(F)F)cc1 (stereo not shown) [Compound I-047] | 221
61 | COCCOc1ccccc1C1c2c(C(C)(C)C)n[nH]c2C(=O)N1c1ccc(-c2ccsc2)cc1 (stereo not shown) [II-115] | 11
62 | Cc1cc(-c2ccc(N3C(=O)C(O)=C(C(=O)C(C)C)C3c3ccccc3C(=O)N3CCOCC3)cc2)cs1 (stereo not shown) [Compound I-546] | 395
63 | COCc1ccccc1C1C(C(=O)c2cccnc2)=C(O)C(=O)N1c1ccc(-c2ccsc2)cc1 (stereo not shown) [Compound I-461] | 36
64 | COCc1ccccc1C1C(C(=O)C(C)C)=C(O)C(=O)N1c1ccc(-c2cscn2)cc1 (stereo not shown) [Compound I-418] | 593
65 | COc1ccc(-c2n[nH]c3c2C(C2CCCCC2)N(c2ccc4[nH]ccc4c2)C3=O)cc1 (stereo not shown) [II-055] | 548
66 | COc1ccccc1C1c2c(C(C)C)n[nH]c2C(=O)N1c1ccc(-c2ccsc2)cc1 (stereo not shown) [II-079] | 11
67 | CCN(C)C(=O)c1ncccc1C1C(C(=O)CC(C)C)=C(O)C(=O)N1c1ccc(-c2ccc(C)s2)cc1 (stereo not shown) [Compound I-575] | 252
68 | COc1ncccc1C1C(C(=O)C(C)(C)C)=C(O)C(=O)N1c1ccc(-c2cccs2)nc1 (stereo not shown) [Compound I-122] | 342
69 | COc1ccccc1C1C(C(=O)C(C)(C)C)=C(O)C(=O)N1c1ccc(-c2cc[nH]c2)cc1 (stereo not shown) [Compound I-094] | 301
70 | COc1ccccc1C1C(C(=O)CC(C)(C)C)=C(O)C(=O)N1c1ccc(-c2ccon2)cc1 (stereo not shown) [Compound I-072] | 352
71 | CC(C)(C)c1n[nH]c2c1C(c1ccccc1OCC#N)N(c1ccc(-c3ccsc3)cc1)C2=O (stereo not shown) [II-173] | 4
72 | CSc1ccccc1C1C(C(=O)C(C)C)=C(O)C(=O)N1c1ccc(-c2csc(C)c2)cc1 (stereo not shown) [Compound I-559] | 40
73 | COCCN(C)C(=O)c1ncccc1C1C(C(=O)CC(C)C)=C(O)C(=O)N1c1ccc(-c2ccc(C)s2)cc1 (stereo not shown) [Compound I-582] | 359
